Legend:
[1] = tested on: gastric tumor cells (BGC823); assay: Tumor inhibition in BGC823 tumor-bearing nude mice (Example 5, Table 8); assay type: in vivo; settings: intratumoral injection once, 150 μl/mouse, 7th day
From the text: The method for determining the effect of combined drug administration in animal experiments was Burgi method (Burgi Y. Pharmacology; Drug actions and reactions. Cancerres. 1978, 38(2), 284-285). The Burgi method was modified by Zhengjun JIN (Zhengjun JIN, Equal probability and curve and “Q50”, Journal of the Second Shanghai Medical College; 1981, 1, 75-86) with q calculated as: q=EA+B/(EA+EB−EA×EB). In the following examples of the present invention, the combinational pharmaceutical efficacies (drug efficacies) of drug A and drug B co-administration was determined by ratio q of actual pharmaceutical efficacy (drug efficacy)/theoretical pharmaceutical efficacy (drug efficacy) according to Zhengjun JIN method, as follows.
Nude mice were used as experimental subjects, and gastric tumor cells (BGC823) were used as modeling cells, 1×10^5 cells/mouse were injected into the right axilla subcutaneously for transplantation tumor modeling, and the average tumor volume of successfully modeled nude mice was 164.4 mm^3. The model animals were randomly divided into 14 groups, and the drugs according to the pharmacological constitutions in Table 8 were administered via intratumoral injection. Each group was dosed once with an injection volume of 150 μl/mouse; wherein the pharmaceutical compositions of groups 5, 11 were semi-fluid, the pharmaceutical compositions of other groups are liquid. On the 7th day after drug administration, the animals were euthanized, and after dissection, the tumor tissue was taken out to determine the tumor weight, and the tumor inhibition rate (r) was calculated relative to the negative control group. Further, the actual efficacy/expected efficacy ratio q of a drug could also be calculated according to the therapeutic effect (tumor inhibition rate).

[2] = tested on: human pancreatic cancer cells (PANC-1); assay: Tumor inhibition in PANC-1 tumor-bearing nude mice, administration volume study (Example 4, Table 6); assay type: in vivo; settings: intratumoral once
Protocol: Nude mice were used as experimental subjects, and human pancreatic cancer cells (PANC-1) were used as modeling cells, 1×10^5 cells/mouse were injected into the right axilla subcutaneously for transplantation tumor modeling, and the average tumor volume of successfully modeled nude mice was 213.1 mm^3. The model animals were randomly divided into 16 groups, and the drugs were administered intratumorally according to the drug components and administration volumes in Table 6, and each group was administered once. The drugs in groups 1-12 were prepared according to the method of Example 1, wherein the inactivated probiotics were heat-inactivated Saccharomyces boulardii, the probiotic water-insoluble component particles were β-glucan particles, the probiotic water-soluble component was disrupted Saccharomyces boulardii supernatant component, and the mixture of the probiotic water-insoluble component particles and water-soluble component (abbreviated as probiotic component mixture) was disrupted Saccharomyces boulardii, preparation method used was the same as that of Example 3. On the 7th day after drug administration, the animals were euthanized, and the tumor tissues were taken out after dissection to determine the tumor weight, and the tumor inhibition rate (r) was calculated relative to the negative control group.

[3] = injection volume 20 ul, administration volume/tumor volume 0.09, 7th day
[4] = injection volume 50 ul, administration volume/tumor volume 0.23, 7th day
[5] = injection volume 100 ul, administration volume/tumor volume 0.47, 7th day

Structure (SMILES)	Tumor inhibition rate r [1] [%]	Tumor weight (x ± s) [1] [g]	Tumor inhibition rate r [2, 3] [%]	Tumor weight (x ± s) [2, 3] [g]	Tumor inhibition rate r [2, 4] [%]	Tumor weight (x ± s) [2, 4] [g]	Tumor inhibition rate r [2, 5] [%]	Tumor weight (x ± s) [2, 5] [g]
O=c1[nH]cc(F)c(=O)[nH]1 [1% 5-fluorouracil, 5-fluorouracil]	41.4	0.132 ± 0.069	–	–	–	–	–	–
CCO [75% ethanol, ethanol]	–	–	6.2	0.257 ± 0.110	20.3	0.218 ± 0.115	31.7	0.187 ± 0.064

Reference: patent publication US20230405063A1, “USE OF PROBIOTIC COMPONENT AND PHARMACEUTICAL COMPOSITION CONTAINING PROBIOTIC COMPONENT” (CHENGDU KUACHANGAOPU MEDICAL TECHNOLOGY CO., LTD., priority 2020, published 2023)
